Assay results published in US10828315B2 (Madrigal Pharmaceuticals, Inc., priority 2013, dated 2020).
Like-named read-outs stand apart in the source and are kept apart here.

Columns and labels:
[1] = Artificial membrane permeability assay (PAMPA)
Method: Pre-coated PAMPA plates were warmed to room temperature for at least 30 minutes prior to adding assay components.
Stock solutions were prepared with the SDC-TRAP molecules to be tested. In order to make a working solution, either 50 μL of 100 μM Stock in DMSO+950 μL of PBS or 50 μL of 200 μM stock was added to 96 deep well plate, resulting in a 5 μM final concentration or a 10 μM final concentration, respectively. 3000 μL of the working solution containing each compound to be tested was added to the appropriate well of a donor PAMPA plate. 200 μL of PBS was added into the corresponding wells of an acceptor PAMPA plates.
The acceptor plate was lowered onto the donor plate and allowed to incubate for five hours. After five hours, a 50 μL aliquot was removed from each well of each plate and added into a new 96 deep-well plate.
100 μL of methanol containing an internal standard was added to each aliquot and analyzed by LC/MS.
In order to calculate the permeability for each SDC-TRAP molecule and the control molecules, the following formula was used:

[2] = Mouse plasma stability protocol, up to 1 h (Examples 16-18)
HER2 = HER2 degradation assay with BT-474 cell line (Example 12, FACS); assay type: cell-based, human
[3] = % Remaining of parent after 1 h incubation in mouse plasma at 37° C. (10 μM)
[4] = Tissue Distribution Data for SDC-TRAP-0154, Time (h) 0.083
[5] = Tissue Distribution Data for SDC-TRAP-0154, Time (h) 1
[6] = Tissue Distribution Data for SDC-TRAP-0154, Time (h) 6
[7] = Tissue Distribution Data for SDC-TRAP-0154, Time (h) 24
[8] = Tissue Distribution Data for SDC-TRAP-0154, Time (h) 48
[9] = Tissue Distribution Data for SDC-TRAP-0195, Time (h) 0.083
[10] = Tissue Distribution Data for SDC-TRAP-0195, Time (h) 1
[11] = Tissue Distribution Data for SDC-TRAP-0195, Time (h) 6
[12] = Tissue Distribution Data for SDC-TRAP-0195, Time (h) 24
[13] = Tissue Distribution Data for SDC-TRAP-0195, Time (h) 48

COc1cccc2c1C(=O)c1c(O)c3c(c(O)c1C2=O)C[C@@](O)(C(=O)CO)C[C@@H]3O[C@H]1C[C@H](N)[C@H](O)[C@H](C)O1 [Doxorubicin, doxorubicin, reference compound]
Mass Retention ([1]; incubation 5 h, first table): 21.0%

CC(C)c1cc(-c2nnc(O)n2-c2ccc3c(ccn3CCOCCNC(=O)CCn3cc(F)c(=O)[nH]c3=O)c2)c(O)cc1O [SDC-TRAP-0048, N-(2-(2-(5-(3-(2,4-dihydroxy-5-isopropylphenyl)-5-hydroxy-4H-1,2,4-triazol-4-yl)-1H-indol-1-yl)ethoxy)ethyl)-3-(5-fluoro-2,4-dioxo-3,4-dihydropyrimidin-1(2H)-yl)propanamide]
Mass Retention ([1]; incubation 5 h, first table): 10.8%

CC(C)c1cc(-c2nnc(O)n2-c2ccc(CN3CCN(C(=O)CCn4cc(F)c(=O)[nH]c4=O)CC3)cc2)c(O)cc1O [SDC-TRAP-0049, 1-(3-(4-(4-(3-(2,4-dihydroxy-5-isopropylphenyl)-5-hydroxy-4H-1,2,4-triazol-4-yl)benzyl)piperazin-1-yl)-3-oxopropyl)-5-fluoropyrimidine-2,4(1H,3H)-dione]
Mass Retention ([1]; incubation 5 h, first table): 14.1%

CCc1c2c(nc3ccc(O)cc13)-c1cc3c(c(=O)n1C2)COC(=O)[C@@]3(CC)OC(=O)N1CCC(CCn2ccc3cc(-n4c(O)nnc4-c4cc(C(C)C)c(O)cc4O)ccc32)CC1 [SDC-TRAP-0064, (S)-4,11-diethyl-9-hydroxy-3,14-dioxo-3,4,12,14-tetrahydro-1H-pyrano[3′,4′:6,7]indolizino[1,2-b]quinolin-4-yl 4-(2-(5-(3-(2,4-dihydroxy-5-isopropylphenyl)-5-hydroxy-4H-1,2,4-triazol-4-yl)-1H-indol-1-yl)ethyl)piperidine-1-carboxylate]
% Remaining (1 h) [2, 3]: 91.5%
% Remaining (1 h) ([2]; mouse plasma, 37° C., 10 μM): 91.5%
% Remaining (1 h, 37° C.) ([2]; mouse plasma, 37° C.): 91.5%
Mass Retention ([1]; same protocol, second table): 48.4%
IC50 (HER2): 1130 nM

CCNC(=O)c1nnc(-c2cc(C(C)C)c(O)cc2O)n1-c1ccc(Oc2ccc(C(=O)N3CCC(C(=O)OC4(CC)C(=O)OCc5c4cc4n(c5=O)Cc5c-4nc4ccc(O)cc4c5CC)CC3)cc2)cc1 (stereo not shown) [SDC-TRAP-0154, 4,11-Diethyl-9-hydroxy-3,14-dioxo-3,4,12,14-tetrahydro-1H-pyrano[3′,4′:6,7]indolizino[1,2-b]quinolin-4-yl 1-(4-(4-(3-(2,4-dihydroxy-5-isopropylphenyl)-5-(ethylcarbamoyl)-4H-1,2,4-triazol-4-yl)phenoxy)benzoyl)piperidine-4-carboxylate]
Plasma Conc. [4]: 928 µM
Tumor Conc. [4]: 11.8 nmol/g of tissue
Tumor/Plasma Ratio [4]: 0.01
Plasma Conc. [5]: 251 µM
Tumor Conc. [5]: 14.1 nmol/g of tissue
Tumor/Plasma Ratio [5]: 0.06
Plasma Conc. [6]: 5.08 µM
Tumor Conc. [6]: 9.46 nmol/g of tissue
Tumor/Plasma Ratio [6]: 1.86
Plasma Conc. [7]: 0.198 µM
Tumor Conc. [7]: 2.35 nmol/g of tissue
Tumor/Plasma Ratio [7]: 11.9
Plasma Conc. [8]: 0.0218 µM
Tumor Conc. [8]: 1.88 nmol/g of tissue
Tumor/Plasma Ratio [8]: 86.0
Mass Retention ([1]; same protocol, second table): 10.3%
IC50 (HER2): 191 nM

CCNC(=O)c1nnc(-c2cc(C(C)C)c(O)cc2O)n1-c1ccc(CN2CCC(C(=O)N[C@@H](CC(C)C)C(=O)Nc3cccc4c3CN(C3CCC(=O)NC3=O)C4=O)CC2)cc1 (stereo partly drawn) [SDC-TRAP-0193, 1-(4-(3-(2,4-dihydroxy-5-isopropylphenyl)-5-(ethylcarbamoyl)-4H-1,2,4-triazol-4-yl)benzyl)-N-((2S)-1-((2-(2,6-dioxopiperidin-3-yl)-1-oxoisoindolin-4-yl)amino)-4-methyl-1-oxopentan-2-yl)piperidine-4-carboxamide]
Mass Retention ([1]; incubation 5 h, first table): 10.2%

CCNC(=O)c1nnc(-c2cc(C(C)C)c(O)cc2O)n1-c1ccc(CN2CCC(C(=O)N3CCN(c4cc(C)c(OC(=O)Nc5cccc6c5CN(C5CCC(=O)NC5=O)C6=O)c(C)c4)CC3)CC2)cc1 (stereo not shown) [SDC-TRAP-0195, 4-(4-(1-(4-(3-(2,4-dihydroxy-5-isopropylphenyl)-5-(ethylcarbamoyl)-4H-1,2,4-triazol-4-yl)benzyl)piperidine-4-carbonyl)piperazin-1-yl)-2,6-dimethylphenyl (2-(2,6-dioxopiperidin-3-yl)-1-oxoisoindolin-4-yl)carbamate]
% Remaining (1 h) [2, 3]: 98.4%
Plasma Conc. [9]: 1220 µM
Tumor Conc. [9]: 17.1 nmol/g of tissue
Tumor/Plasma Ratio [9]: 0.0140
Plasma Conc. [10]: 211 µM
Tumor Conc. [10]: 23.0 nmol/g of tissue
Tumor/Plasma Ratio [10]: 0.109
Plasma Conc. [11]: 7.23 µM
Tumor Conc. [11]: 17.1 nmol/g of tissue
Tumor/Plasma Ratio [11]: 2.36
Plasma Conc. [12]: 2.03 µM
Tumor Conc. [12]: 11.2 nmol/g of tissue
Tumor/Plasma Ratio [12]: 5.50
Plasma Conc. [13]: BQL
Tumor Conc. [13]: 12.6 nmol/g of tissue
Mass Retention ([1]; incubation 5 h, first table): 27.1%
IC50 (HER2): 49 nM

CCNC(=O)c1nnc(-c2cc(C(C)C)c(O)cc2O)n1-c1ccc2c(ccn2CCC2CCN(C(=O)Oc3ccc4nc5c(c(CC)c4c3)Cn3c-5cc4c(c3=O)COC(=O)[C@]4(O)CC)CC2)c1 [SDC-TRAP-0205, (S)-4,11-diethyl-4-hydroxy-3,14-dioxo-3,4,12,14-tetrahydro-1H-pyrano[3′,4′:6,7]indolizino[1,2-b]quinolin-9-yl 4-(2-(5-(3-(2,4-dihydroxy-5-isopropylphenyl)-5-(ethylcarbamoyl)-4H-1,2,4-triazol-4-yl)-1H-indol-1-yl)ethyl)piperidine-1-carboxylate]
% Remaining (1 h) [2, 3]: 58.4%
% Remaining (1 h, 37° C.) ([2]; mouse plasma, 37° C.): 58.4%
Mass Retention ([1]; same protocol, second table): 10.9%
IC50 (HER2): 564 nM

CCNC(=O)c1nnc(-c2cc(C(C)C)c(O)cc2O)n1-c1ccc2c(ccn2CCC2CCN(C(=O)O[C@]3(CC)C(=O)OCc4c3cc3n(c4=O)Cc4c-3nc3ccc(O)cc3c4CC)CC2)c1 [SDC-TRAP-0208, (S)-4,11-diethyl-9-hydroxy-3,14-dioxo-3,4,12,14-tetrahydro-1H-pyrano[3′,4′: 6,7]indolizino[1,2-b]quinolin-4-yl 4-(2-(5-(3-(2,4-dihydroxy-5-isopropylphenyl)-5-(ethylcarbamoyl)-4H-1,2,4-triazol-4-yl)-1H-indol-1-yl)ethyl)piperidine-1-carboxylate]
% Remaining (1 h) [2, 3]: 86.1%
% Remaining (1 h, 37° C.) ([2]; mouse plasma, 37° C.): 86.1%
Mass Retention ([1]; same protocol, second table): 25.0%
IC50 (HER2): 480 nM

CCc1c2c(nc3ccc(OC(=O)N4CCC[C@H]4C(=O)N4CCC(CCn5ccc6cc(-n7c(O)nnc7-c7cc(C(C)C)c(O)cc7O)ccc65)CC4)cc13)-c1cc3c(c(=O)n1C2)COC(=O)[C@]3(O)CC [SDC-TRAP-0210]
Mass Retention ([1]; incubation 5 h, first table): 34.8%
Mass Retention ([1]; same protocol, second table): 72.2%
IC50 (HER2): > 10000 nM

CC(C)c1cc(-c2nnc(C(=O)NCCCCCS(N)(=O)=O)n2-c2ccc(CN3CCOCC3)cc2)c(O)cc1O [SDC-TRAP-0232, 5-(2,4-dihydroxy-5-isopropylphenyl)-4-(4-(morpholinomethyl)phenyl)-N-(5-sulfamoylpentyl)-4H-1,2,4-triazole-3-carboxamide]
Mass Retention ([1]; incubation 5 h, first table): 21.0%
